US20110021532A1, “NOVEL SUBSTITUTED HETEROAROMATIC COMPOUNDS AS INHIBITORS OF STEAROYL-COENZYME A DELTA-9 DESATURASE” (Merck Frosst Canada Ltd., priority 2008, published 2011)

target: T1, human SCD1 (hSCD-1) (Homo sapiens, UniProt O00767); experiment: SCD enzyme activity assay, reconstituted human SCD1 (hSCD-1); format: biochemical; conditions: human SCD1, conversion of [3H]-stearoyl-CoA
T1 construct: made in house; host or cells: baculovirus/Sf9
T1 sequence (O00767 1-359): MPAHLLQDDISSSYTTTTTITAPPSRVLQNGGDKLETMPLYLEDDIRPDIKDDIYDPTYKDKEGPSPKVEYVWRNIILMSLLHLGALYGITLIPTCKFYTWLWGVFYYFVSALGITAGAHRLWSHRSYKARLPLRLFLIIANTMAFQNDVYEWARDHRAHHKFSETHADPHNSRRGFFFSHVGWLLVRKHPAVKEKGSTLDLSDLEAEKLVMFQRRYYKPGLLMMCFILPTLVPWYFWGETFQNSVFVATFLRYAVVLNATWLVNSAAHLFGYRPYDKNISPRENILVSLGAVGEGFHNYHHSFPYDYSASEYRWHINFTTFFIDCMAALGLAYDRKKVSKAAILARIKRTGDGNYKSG
Method: The potency of compounds of formula I against the stearoyl-CoA desaturase was determined by measuring the conversion of radiolabeled stearoyl-CoA to oleoyl-CoA using rat liver microsome or human SCD1 (hSCD-1) following previously published procedures with some modifications (Joshi, et al., J. Lipid Res., 18: 32-36 (1977); Talmo, et al., Anal. Biochem, 29: 300-304 (1969)). Liver microsome was prepared from male Wistar or Sprague Dawley rats on a high carbohydrate diet for 3 days (LabDiet #5803, Purina). The livers were homogenized (1:10 w/v) in a buffer containing 250 mM sucrose, 1 mM EDTA, 5 mM DTT and 50 mM Tris-HCl (pH 7.5). After a 100,000×g centrifugation for 60 min, the liver microsome pellet was suspended in a buffer containing 100 mM sodium phosphate, 20% glycerol, 2 mM DTT, and stored at −78° C. Human SCD1 desaturase system was reconstituted using human SCD1 from a baculovirus/Sf9 expression system, cytochrome B5 and cytochrome B5 reductase. Typically, test compound in 2 μL DMSO was incubated for 15 min at room temperature with 180 μL of the SCD enzyme in a buffer containing 100 mM Tris-HCl (pH 7.5), ATP (5 mM), Coenzyme-A (0.1 mM), Triton X-100 (0.5 mM) and NADH (2 mM). The reaction was initiated by the addition of 20 μL of [^3H]-stearoyl-CoA (final concentration=2 μM, radioactivity concentration=1 μCi/mL). After 10 min, the reaction mixture (80 μL) was mixed with a calcium chloride/charcoal aqueous suspension (100 μL charcoal (10% w/v) plus 25 μL CaCl2 (2N). After centrifugation to precipitate the radioactive fatty acid species, tritiated water released from 9,10-[^3H]-stearoyl-CoA by the SCD enzyme was quantified on a scintillation counter.

Compared with `CS(=O)(=O)c1cnc2[nH]c(-c3ccc(-c4ccccc4F)cc3)nc2c1`, `CS(=O)(=O)c1ccc2nc(-c3ccc(-c4ccccc4F)nc3)[nH]c2c1` is 4.2-fold lower in IC50: 113 nM for the first, 27 nM for the second.

Compared with `CS(=O)(=O)c1ccc2nc(-c3ccc(-c4cccc(F)c4)cc3)[nH]c2c1`, `CS(=O)(=O)c1ccc2[nH]c(-c3ccc(-c4cccs4)cc3)nc2c1` is 8.9-fold higher in IC50: 26 nM for the first, 231 nM for the second.

Compound `CS(=O)(=O)c1ccn2cc(-c3ccc(-c4cccc(Cl)c4)cc3)nc2c1` has an IC50 of 13 nM.
